“And” between values parts separate entries of the source, which are not always exact repeats. Identical values can stand only once.
Tests used:
[1] = system: HT-29 cells; experiment: MTT cytotoxicity assay, HT-29; assay type: cell-based, human; conditions: for IC50: Homo sapiens, HT-29, MTT, 72 h after treatment, mean ± SEM; for Selectivity index (IC50 normal cell line/IC50 cancer cell lines), HT-29: MRC-5 / HT-29, in brackets
Method: (§1) SW620 cells were cultured in Dulbecco’s Modified Eagle’s medium (DMEM, Sigma-Aldrich Chemie GmbH, Steinheim, Germany) and supplemented in the same manner as the previously mentioned cell lines. Cells were grown in cell culture flasks T25 (Sarstedt AG & Co., Nümbrecht, Germany) at appropriate cell densities in the culture medium prior to exposure to treatments. Stock solutions of each compound, prepared in DMSO, were diluted in the culture medium to obtain the appropriate final concentrations.
(§2) The viability of the control and cells treated with the tested compounds was determined by MTT assay. Cells were seeded in 96-well plates at a density of 2000 cells/well, allowed to attach overnight, and then treated with rising concentrations of testing compounds. The ability of viable cells to reduce 3-(4,5-dimethylthiazol-2-yl)-2,5-diphenyltetrazolium bromide into blue-purple formazan crystals, was measured 72 h after the treatments. Namely, l mg/mL of MTT reagent (Sigma-Aldrich Chemie GmbH, Steinheim, Germany) was added to each well and incubated for an additional 4 h. Finally, upon removal of the medium containing MTT, 200 µL of DMSO was added to each well.

[2] = system: BxPC-3 cells; experiment: MTT cytotoxicity assay, BxPC-3; assay type: cell-based, human; conditions: for IC50: MTT, 72 h after treatment, mean ± SEM; for Selectivity index (IC50 normal cell line/IC50 cancer cell lines), BxPC-3: MRC-5 / BxPC-3, in brackets
Method: as §1, §2

[3] = system: HCT 116 cells; experiment: MTT cytotoxicity assay, HCT 116; assay type: cell-based, human; conditions: for IC50: Homo sapiens, HCT-116, MTT, 72 h after treatment, mean ± SEM; for Selectivity index (IC50 normal cell line/IC50 cancer cell lines), HCT 116: MRC-5 / HCT 116, in brackets
Method: as §1, §2

[4] = system: SW620 cells; experiment: Cytotoxicity in SW620 cells after 24 h treatment (Table S2); assay type: cell-based; conditions: Homo sapiens, SW-620, read-out: IC50 (µM) following 24h treatment in SW620 cells
[5] = system: SW620 cells; experiment: Wound-healing assay; assay type: cell-based, human; conditions: 25 μM; for Relative Wound Closure (%) 24 h: SW620, 24 h relative to T0, mean ± SEM, control 17.87 ± 3.48; for Relative Wound Closure (%) 48 h: SW620, 48 h relative to T0, mean ± SEM, control 24.51 ± 1.39
Method: The migratory potential of SW620 cells (human colon carcinoma cell line) was evaluated by a wound-healing assay. Cells were seeded in density of 300,000 cells per well in 24-well tissue culture microplates and grown for 24 h in DMEM medium supplemented with 10% FBS, penicillin/streptomycin and L-glutamine at 37 °C in a humidified atmosphere containing 5% CO2. Upon reaching confluence, a uniform wound was scratched into a monolayer of each well with a sterile plastic 200 μL micropipette tip. After wounding, the medium was replaced and cells were further treated with 25 μM of compounds 1, 2, 3, and 5 for 24 h and 48 h. Wound closure was monitored by imaging cells at 4× magnification using the ImageXpress® Pico Automated Cell Imaging System (Molecular Devices®, San Jose, CA, USA) immediately (T0), and at 24 h (T24) and 48 h (T48) after wounding. The captured images were analyzed by ImageJ software v. 1.52p (U.S. National Institutes of Health, Bethesda, MD, USA) to measure the degree of closure of the wounded area. Independent experiments were performed three times.

[6] = system: MRC-5 cells; experiment: MTT cytotoxicity assay, MRC-5 normal fibroblasts; assay type: cell-based, human; conditions: for IC50: MTT, 72 h after treatment, mean ± SEM, healthy cell line; for Selectivity index, MRC-5: MRC-5 / MRC-5 (reference value), in brackets
[7] = system: HT-29 cells; experiment: SRB assay, compound plus γ-radiation, HT-29; assay type: cell-based, human; conditions: IC50 concentration 24 h before 2 Gy γ-radiation, SRB 72 h after irradiation
Method: In the experiments involving irradiation, cells were irradiated at room temperature, in the vertical position with the cell monolayer facing ^60Co γ-rays (CIRUS-Cis Biointernational). The irradiation of samples was performed in Vinča Institute of Nuclear Sciences, Belgrade, Serbia. In all experiments, a clinically relevant radiation dose of 2 Gy with the dose rate of ~1 Gy/min was applied.
For the evaluation of cell viability after treatments with radiation as well as after combined treatments, a sulforhodamine B (SRB) protein binding assay was used. This assay is based on the staining of cellular proteins. Maintaining conditions were identical to that of MTT assay. The cells were pretreated with IC50 concentrations of tested compounds for 24 h before irradiations. Following the 72 h post-irradiation incubation time under standard conditions (5% CO2, 37 °C) cells were fixed by protein precipitation with 10% trichloroacetic acid (TCA) at 4 °C for 1 h. Plates were rinsed with distillated water and stained with 0.4% SRB (Sigma-Aldrich Chemie GmbH, Steinheim, Germany) in 1% acetic acid, for 15 min at room temperature. Excess stain was removed by washing the wells in 1% acetic acid. After being rinsed, microwell plates were air dried until no staining moisture was visible. Bound dye was dissolved in 10 mM unbuffered Tris base (pH 10.5) for 5 min on a gyratory shaker. The absorbance of each well was measured using a microplate reader (Wallac VICTOR2 1420 Multilabel counter, PerkinElmer, Turku, Finland) at a test wavelength of 550 nm.

[8] = system: SW620 cells; conditions: cited from earlier work
[9] = in vivo; conditions: in vivo
Method: Wild-type (AB) zebrafish embryos, kindly provided by Dr. Ana Cvejić (Wellcome Trust Sanger Institute, Cambridge, UK), were raised to adult stage in a temperature- and light-controlled zebrafish facility at 28 °C and a standard 14:10 h light–dark photoperiod. Fish were fed with commercial dry food (SDS200 and SDS300 granular food; Special Diet Services, Essex; UK and TetraMinTM flakes; Tetra Melle, Germany) twice a day, and with Artemia nauplii daily.
Embryos produced by pairwise mating were washed to remove debris, distributed at 10 per well into 24-well plates containing 1 mL of E3 medium (5 mM NaCl, 0.17 mM KCl, 0.33 mM CaCl2 and 0.33 mM MgSO4 in distilled water) and maintained at 28 °C. […] Dead embryos were recorded and discarded every 24 h. […] Experiments were performed in triplicate using 30 embryos for each concentration. At 120 hpf, embryos were anesthetized by the addition of 0.1% (w/v) tricaine solution (Sigma-Aldrich, St. Louis, MO, USA), photographed, and killed by freezing at −20 °C for ≥24 h.

Structure (SMILES)	IC50 [1]	Selectivity index (IC50 normal cell line/IC50 cancer cell lines), HT-29 [1]	IC50 ([2]; Homo sapiens, BXPC-3, 72 h)	Selectivity index (IC50 normal cell line/IC50 cancer cell lines), BxPC-3 [2]	IC50 [3]	Selectivity index (IC50 normal cell line/IC50 cancer cell lines), HCT 116 [3]	IC50 [4]	Relative Wound Closure (%) 24 h [5]	Relative Wound Closure (%) 48 h [5]	IC50 ([6]; Homo sapiens, MRC5, 72 h)	Selectivity index, MRC-5 [6]	cell proliferation, combined treatment versus radiation alone, HT-29 [7]	IC50 [2]	IC50 [6]	antimigratory effects on SW620 cell line ([8]; 10 nM, after 24 h)	migratory ability of SW620 cells ([8]; 400 μM, after 36 h)	LC50 [9]	antimigratory properties in SW620 cells ([8]; 30 μM, 48 h)
COc1ccc2c(c1)c(CNC(=O)NO)c(C)n2C(=O)c1ccc(Cl)cc1 [Compound 1]	9.78 ± 0.68 µM	0.99	12.8 ± 1.11 µM	0.76	4.97 ± 0.78 µM	1.95	215 ± 4.9 µM	3.20% and 3.20 ± 0.99%	5.08% and 5.08 ± 2.46%	9.68 ± 2.34 µM	1							
CC(NC(=O)NO)c1ccc(-c2ccccc2)c(F)c1 (stereo not drawn) [Compound 2]	82.4 ± 4.25 µM	0.84	48.7 ± 4.6 µM	1.42	64.8 ± 2.76 µM	1.07	386 ± 11.8 µM	7.47 ± 2.14%	11.61 ± 3.06%	69.1 ± 3.07 µM	1							
COC(=O)C(Cc1cnc[nH]1)NC(=O)c1cc(C(C)(C)C)c(O)c(C(C)(C)C)c1 (stereo not drawn) [Compound 4]	42.3 ± 2.57 µM	0.84	24.7 ± 2.01 µM	1.43	29.5 ± 5.23 µM	1.20				35.4 ± 4.14 µM	1							
COC(=O)CNC(=O)c1cc(C(C)(C)C)c(O)c(C(C)(C)C)c1 [Compound 5]	81.6 ± 2.77 µM	> 1.22	41.2 ± 2.88 µM	> 2.43	51.7 ± 1.78 µM	> 1.94	132 ± 3.5 µM	7.12 ± 1.43%	9.11 ± 0.27%	> 100 µM		significantly inactivated HT-29 cells						
CCOc1ccccc1NC(=O)N(C)C [Compound 8]	> 100 µM		> 100 µM		> 100 µM					> 100 µM								
CN(C)C(=O)Nc1ccccc1C(=O)O [Compound 9]	> 100 µM		> 100 µM		> 100 µM					> 100 µM								
CCOc1ccccc1NC(=O)Nc1ccc([N+](=O)[O-])cc1 [Compound 10]	7.08 ± 0.3 µM	2.64	6.05 ± 1.68 µM	3.09	9.3 ± 0.38 µM	2.01				18.7 ± 0.98 µM	1							
CC(=O)N(O)C(C)c1ccc(CC(C)C)cc1 (stereo not drawn) [Compound 11]	84.1 ± 3.43 µM	0.68	63 ± 3.8 µM	0.91	82 ± 2.34 µM	0.70				57.1 ± 3.8 µM	1							
COc1ccc2cc(C(C)N(O)C(C)=O)ccc2c1 (stereo not drawn) [Compound 12]	> 100 µM		> 100 µM	0.83	> 100 µM					> 100 µM	1		76.7 ± 5.54 µM	63.6 ± 9.04 µM				
CC(C)(C)c1cc(/C=C2\SC(=S)N(N)C2=O)cc(C(C)(C)C)c1O [Compound 13]	12.4 ± 1.95 µM	4.60	1.8 ± 0.1 µM	31.72	2.21 ± 0.12 µM	25.84				57.1 ± 3.8 µM	1							
O=C(O)Cc1ccccc1Nc1c(Cl)cccc1Cl [Diclofenac, reference compound]	75 ± 3.98 µM		57.2 ± 3.03 µM		79.1 ± 3.68 µM													
CC(C(=O)O)c1ccc(-c2ccccc2)c(F)c1 (stereo not drawn) [Flurbiprofen, reference compound]	> 100 µM		> 100 µM		> 100 µM					> 100 µM					significant antimigratory effects			
COc1ccc2c(c1)c(CC(=O)O)c(C)n2C(=O)c1ccc(Cl)cc1 [Indomethacin, reference compound]	89.5 ± 4.45 µM	0.89	85.9 ± 2.58 µM	0.93	60.4 ± 4.27 µM	1.32				79.8 ± 5.9 µM	1					significantly decreased the migratory ability		
CC(c1cc2ccccc2s1)N(O)C(N)=O (stereo not drawn) [Zileuton, reference compound]	78.5 ± 2.28 µM	1.22	74.9 ± 4.1 µM	1.28	44.9 ± 3.48 µM	2.13				95.74 ± 0.94 µM	1						4.41 µM	
Cc1ccc(-c2cc(C(F)(F)F)nn2-c2ccc(S(N)(=O)=O)cc2)cc1 [celecoxib]																		comparable efficacy to compounds 1, 2, 3 and 5

Reference: PMC11207729, “Unveiling Anticancer Potential of COX-2 and 5-LOX Inhibitors: Cytotoxicity, Radiosensitization Potential and Antimigratory Activity against Colorectal and Pancreatic Carcinoma” (Pharmaceutics, 2024)
